The target in test [1] is T1, Delta opiate binding sites (Rattus norvegicus, UniProt P33533).
T1 construct: from tissue; host or cells: rat brain minus cerebellum, twice-washed P2 membrane fraction
On the set-up: species or system Sprague-Dawley rats.

In another test the target is T2, Mu opiate binding sites (Rattus norvegicus, UniProt P33535).
T2 construct: from tissue; host or cells: rat brain minus cerebellum, twice-washed P2 membrane fraction
On the set-up: species or system Sprague-Dawley rats.

A further test deals with Cough in Guinea Pigs. On the set-up: species or system Dunkin Hartley guinea pigs. Particulars: guinea pig, in vivo.

SMILES strings stand for the structures. Read-outs that look alike come from different tables or passages of the source. Marks after values point to notes of the source that are not given here.

T1 sequence (P33533 whole entry): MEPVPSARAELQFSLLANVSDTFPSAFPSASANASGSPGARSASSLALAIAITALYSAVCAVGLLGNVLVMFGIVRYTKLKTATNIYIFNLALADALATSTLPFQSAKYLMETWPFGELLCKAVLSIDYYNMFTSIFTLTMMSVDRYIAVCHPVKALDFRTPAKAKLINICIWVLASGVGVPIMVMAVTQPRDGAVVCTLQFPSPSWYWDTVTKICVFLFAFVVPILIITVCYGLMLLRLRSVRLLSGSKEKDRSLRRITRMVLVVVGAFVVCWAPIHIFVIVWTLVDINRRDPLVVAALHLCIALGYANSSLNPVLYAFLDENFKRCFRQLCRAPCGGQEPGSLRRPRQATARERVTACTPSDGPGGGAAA
T2 sequence (P33535 whole entry): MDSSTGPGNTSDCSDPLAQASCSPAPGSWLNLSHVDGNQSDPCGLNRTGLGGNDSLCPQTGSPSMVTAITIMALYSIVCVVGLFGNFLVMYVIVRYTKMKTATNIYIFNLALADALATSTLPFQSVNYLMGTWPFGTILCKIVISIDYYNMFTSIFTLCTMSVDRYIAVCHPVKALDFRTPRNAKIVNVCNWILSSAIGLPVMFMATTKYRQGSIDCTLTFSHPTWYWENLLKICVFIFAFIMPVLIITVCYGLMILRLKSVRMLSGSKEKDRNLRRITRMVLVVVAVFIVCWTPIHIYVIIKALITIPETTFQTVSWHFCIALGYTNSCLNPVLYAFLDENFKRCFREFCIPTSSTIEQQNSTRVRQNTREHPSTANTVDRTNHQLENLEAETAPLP

In the case of `CC(C)C[C@H](NC(=O)[C@H](Cc1ccccc1)NC(=O)CNC(=O)[C@H](NC(=O)[C@@H](N)Cc1ccc(O)cc1)[C@H](C)O)C(=O)N[C@H](C(=O)O)[C@@H](C)O` [DTLET, D-Thr²-Leu-Enkephalin-Thr], the figures for the IC50 (in test [1] (read-out: IC₅₀ Delta); at Mu opiate binding sites (read-out: IC₅₀ Mu)) were 2.7 nM and 184 nM, respectively. In addition, the Ki is 1.2 nM in test [1] (read-out: Ki Delta) and 105 nM at Mu opiate binding sites (read-out: Ki Mu).
As for `COc1ccc2c3c1O[C@H]1[C@@H](O)C=C[C@H]4[C@@H](C2)N(C)CC[C@@]341` [(-)-codeine], the inhibition of cough in the test with Cough in Guinea Pigs is reported as 46%. Further, in the test with Cough in Guinea Pigs (po), the “% Inhibition of Coughing 5 min” value was 42.7*** % and the “% Inhibition of Coughing 10 min” value is reported as 38.7*** %. Also, in the test with Cough in Guinea Pigs (sc), the “% Inhibition of Coughing 5 min” value is reported as 46.2*** % and the “% Inhibition of Coughing 10 min” value is 46.1*** %.

Values taken from EP0418591B1 (priority 1989, dated 1991).
